Measured values taken from patent publication US7659312B2, “Inhibitors of Aquaporin 4, methods and uses thereof” (Niigata University, priority 2006, dated 2010).
Like-named read-outs stand apart in the source and are kept apart here.

Experiments:
[1] = target: T1, human aquaporin-4 M23 isoform (hAQP4b) (Homo sapiens, UniProt P55087); experiment: Inhibition of AQP4 mediated hypoosmotic swelling of Xenopus laevis oocytes expressing hAQP4b; assay type: cell-based; design: IAmax: unit not given here; settings: for IAmax: value in parentheses after IC50, 0.01≦[X]≦100 μM
T1 construct: Full-length cRNA was subcloned into pSP35T expression vector for Xenopus oocytes; expressed in transfected cells; host or cells: Xenopus laevis oocytes injected with hAQP4b cRNA (pSP35T vector)

[2] = target: T1, human aquaporin-4 M23 isoform (hAQP4b); experiment: as above; assay type: cell-based; settings: for inhibition at 20 µM / % Inh (percent inhibition and cumulated error): Table 3, [X]=20 μM, P<0.05; for inhibition at 20 µM: read-out: % Inh (percent inhibition and cumulated error)
Method: Compounds studied in vitro were purchased from Sigma-Aldrich, Tokyo Kasei, Wako or Scientific Exchange, and were used without further purification. […] Compound samples were freshly dissolved into DMSO (Sigma, Hibri-Max) and diluted into RO deionized water (Milipore, Ultra-Q) prior to use. Other reagents were purchased from Sigma and Wako and were used without modification. Modified Barth's Medium (MBS) and isolation buffer were prepared using autoclaved, doubly distilled water. MBS was used for up to one week after its preparation. […] Isolation buffer was prepared to contain NaCl (108 mM), KCl (2 mM), EDTA, (2 mM), HEPES (10 mM), and was at pH=7.5.
cDNA encoding human aquaporin-4 M23 isoform (hAQP4b) was cloned by reverse-transcription polymerase chain reaction (RT-PCR). First-strand cDNA was synthesized from human cerebellum total RNA by using the Advantage RT-for-PCR Kit (CLONTECH). The following oligonucleotide PCR primers were designed based on published hAQP4b sequences (Lu, et al. Proc. Nat. Acad. Sci. USA 1996, 93, 10908): forward 5′-[…]-3′, reverse 5′-[…]-3′. Full-length cRNA was subcloned into pSP35T expression vector for Xenopus oocytes (Amaya, et al. Cell 1991, 66, 257).
Oocytes from an adult, female Xenopus laevis were transferred portion-wise to a Petri dish containing isolation buffer, where the follicular membranes and vitelline were removed manually, thereby yielding denuded oocytes (Sakimura, et al. FEBS Lett. 1990, 272, 73). Denuded stage V-VI oocytes were then returned to fresh MBS medium and allowed to equ ilibrate for a minimum of 2 h at 18° C. prior to cRNA injection. Denuded oocytes unused after 24 h were discarded. An aliquot of hAQP4b cRNA solution (20 μL) was pelleted by centrifugation (15,000 rpm, 14 min, 4° C.), the pellet was washed sequentially with 70% aqueous ethanol, then 100% ethanol (centrifugation between washes at 15,000 rpm, 3 min, 4° C.), air dried, and finally reconstituted in distilled water (10 μL). An aliquot (30 nL) of either the resulting 0.1 μg/μL cRNA solution (3 ng hAQP4b cRNA/oocyte) or distilled water (sham) was injected into each oocyte using a Drummond oocyte injection system. The injected oocytes were then incubated for 48 h at 18° C. in MBS. The medium was changed and non-viable oocytes removed 24 and 48 h post injection.
An oocyte assay procedure was developed as follows: At a minimum of 3 h prior to the assay, oocytes were transferred to a 96 well microplate (Falcon 353077) along with 45 μL of MBS. An aliquot of a 200 μM inhibitor solution (5 μL, 1% aq. DMSO), or blank (5 μL, 1% aq. DMSO) was introduced to the oocyte containing well 2 h before the assay. The final concentration of the incubation medium was 20 μM in inhibitor with 0.1% DMSO. A secondary plate was likewise prepared by diluting an aliquot of the 200 μM inhibitor solution (15 μL, 1% aq. DMSO) or blank (15 μL, 1% aq. DMSO) with distilled water (135 μL). The assay was performed by transferring an aliquot of the secondary plate medium (100 μL) to the corresponding well on the incubation plate. […] The initial image (nominally t=3 s) and subsequent images (60 s intervals) were recorded for up to 4 minutes post dilution.
Images were transferred to a PC and the area of each oocyte was evaluated using NIH Image-J. The cross-sectional area values for each oocyte at time=t were converted to volumes assuming a spherical relationship. The relative volume of each oocyte compared to its initial volume was then determined. Relative oocyte volumes were then averaged for n oocytes along with the standard error at each point.

HEK293 cells = settings: literature report, isozyme not demonstrated; cited from earlier work
AQP1 = target: T2, AQP1 (Homo sapiens, UniProt P29972); settings: literature report; cited from earlier work
T2 sequence (P29972 1-269): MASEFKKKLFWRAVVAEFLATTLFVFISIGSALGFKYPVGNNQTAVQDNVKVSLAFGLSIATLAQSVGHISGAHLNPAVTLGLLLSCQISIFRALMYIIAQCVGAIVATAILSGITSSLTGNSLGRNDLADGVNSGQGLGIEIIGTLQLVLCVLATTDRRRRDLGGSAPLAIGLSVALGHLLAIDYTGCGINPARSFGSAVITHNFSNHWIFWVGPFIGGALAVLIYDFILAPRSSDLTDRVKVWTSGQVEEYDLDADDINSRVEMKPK

AQP4 = AQP4 (Homo sapiens, UniProt P55087); settings: literature report; cited from earlier work
[3] = Table 3, from inhibitory data at 0.01≦[X]≦100 μM, read-out: IC50
[4] = figure legends FIGS. 8-12, non-linear least squares fit of dose dependent inhibition, read-out: IC50

T1 sequence (P55087 23-323): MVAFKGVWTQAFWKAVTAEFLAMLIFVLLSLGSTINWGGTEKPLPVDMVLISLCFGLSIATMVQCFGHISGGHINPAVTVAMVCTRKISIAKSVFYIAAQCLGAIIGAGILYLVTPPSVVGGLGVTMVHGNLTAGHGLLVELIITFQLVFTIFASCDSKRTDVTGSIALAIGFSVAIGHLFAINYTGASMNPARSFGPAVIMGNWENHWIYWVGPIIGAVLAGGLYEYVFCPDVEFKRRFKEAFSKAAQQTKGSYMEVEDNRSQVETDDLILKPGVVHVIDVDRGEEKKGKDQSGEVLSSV
Sequence of AQP4 (P55087 whole entry): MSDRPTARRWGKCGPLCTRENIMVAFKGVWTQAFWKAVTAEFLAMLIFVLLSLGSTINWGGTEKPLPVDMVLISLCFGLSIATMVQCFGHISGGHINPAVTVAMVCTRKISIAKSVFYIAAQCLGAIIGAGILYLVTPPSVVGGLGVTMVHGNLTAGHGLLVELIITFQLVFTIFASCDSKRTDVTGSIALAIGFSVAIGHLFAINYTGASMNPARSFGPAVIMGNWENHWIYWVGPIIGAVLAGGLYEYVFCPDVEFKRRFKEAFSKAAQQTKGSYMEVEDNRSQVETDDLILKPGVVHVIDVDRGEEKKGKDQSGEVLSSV

Row | IAmax ([1]; Table 3) | inhibition at 20 µM [2] [%] | SMILES | also measured
1 | 86 | 78 ± 3 | CC(=O)Nc1nnc(S(N)(=O)=O)s1 [Compound 1, N-(5-sulfamoyl-1,3,4-thiadiazol-2-yl)acetamide] | dose response dependent inhibition of AQP4 mediated water transport ([1]; FIG. 7, 0.01, 0.1, 1.0 and 10 μM solutions, n=5): significant inhibition; IC50 ([1]; Table 3, from inhibitory data at 0.01≦[X]≦100 μM): 0.86 µM
2 | – | 23 ± 5 | CC(=O)Nc1ccc(S(N)(=O)=O)cc1 [Compound 3, N-(4-sulfamoylphenyl)acetamide] | –
3 | 60 | 58 ± 4 | O=C1NC(=O)C(c2ccccc2)(c2ccccc2)N1 [Compound 4, 5,5-diphenylimidazolidine-2,4-dione] | IC50 [1, 3]: 9.8 µM
4 | – | 33 ± 4 | NC(=O)N1c2ccccc2CC(=O)c2ccccc21 [Compound 5, 10-oxo-10,11-dihydro-5H-dibenzo [b,f]azepine-5-carboxamide] | –
5 | – | 40 ± 7 | NC(=O)N1c2ccccc2[C@H]2O[C@H]2c2ccccc21 [Compound 6, (1aR, 10bS)-1aH-dibenzo[b,f] oxireno[2,3-d]azepine-6(10bH)-carboxamide] | inhibition of AQP4 mediated water swelling / water transport ([2]; FIGS. 1-6, 20 μM inhibitor, hypoosmotic conditions, versus sham and blank oocytes, n=5 minimum): did not show a significantly inhibited water transport
6 | 64 | 54 ± 9 | Nc1nnc(-c2cccc(Cl)c2Cl)c(N)n1 [Compound 7, 6-(2,3-dichlorophenyl)-1,2,4-triazine-3,5-diamine] | IC50 [1, 3]: 8.1 µM
7 | 75 | – | CC1(C)O[C@@H]2[C@@H](CO[C@@]3(COS(N)(=O)=O)OC(C)(C)O[C@@H]23)O1 [Compound 8, ((3aS,5aR,8aR,8bS)-2,2,7,7-tetra-methyltetrahydro-3aH-bis[1,3]dioxolo[4,5-b:4′,5′-d]pyran-3a-yl) methyl sulfamate] | IC50 [1, 3]: 10.1 µM; % Inh (percent inhibition and cumulated error) [2]: 67 ± 6%
8 | – | 19 ± 5 | NS(=O)(=O)Cc1noc2ccccc12 [Compound 9, benzo[d]isoxazol-3-ylmethane sulfonamide] | –
9 | 73 | 67 ± 6 | O=C(Nc1nncs1)c1cccnc1 [Compound 10, N-(1,3,4-thiadiazol-2-yl) nicotinamide] | IC50 [1, 3]: 3.1 µM
10 | – | – | O=S(=O)(Cc1ccccc1)Nc1nncs1 [Compound 12, 1-phenyl-N-(1,3,4-thiadiazol-2-yl) methanesulfonamide] | % Inh (percent inhibition and cumulated error) [2]: 45 ± 8%
11 | – | 18 ± 9 | NS(=O)(=O)c1ccc(Cl)s1 [Compound 13, 2-chlorothiophene-5-sulfonamide] | –
12 | – | 23 ± 8 | NC(=O)c1nc[nH]c1C(N)=O [Compound 14, 1H-imidazole-4,5-dicarboxamide] | –
13 | 54 | 51 ± 5 | CN(C)CCc1c[nH]c2ccc(Cn3cncn3)cc12 [Compound 15, 2-(5-((1H-1,2,4-triazol-1-yl)methyl)-1H-indol-3-yl)-N,N-dimethylethanamine] | IC50 [1, 3]: 2.9 µM
14 | – | – | COC(=O)Nc1nc2ccc(C(=O)c3cccs3)cc2[nH]1 [Nocodazole] | inhibition of AQP4 mediated hypoosmotic expansion (HEK293 cells): inhibiting the AQP4 mediated hypoosmotic expansion of HEK293 cells
15 | – | – | CC(=O)Nc1nnc(S(N)(=O)=O)s1 [Table 3 entry 1, N-(5-sulfamoyl-1,3,4-thiadiazol-2-yl)acetamide] | IC50 [2]: 0.86 µM
16 | – | – | O=C1NC(=O)C(c2ccccc2)(c2ccccc2)N1 [Table 3 entry 4, 5,5-diphenylimidazolidine-2,4-dione] | IC50 [1, 4]: 9.8 µM
17 | – | – | CC1(C)O[C@@H]2[C@@H](CO[C@@]3(COS(N)(=O)=O)OC(C)(C)O[C@@H]23)O1 [Table 3 entry 8, ((3aS,5aR,8aR,8bS)-2,2,7,7-tetra-methyltetrahydro-3aH-bis[1,3]dioxolo[4,5-b:4′,5′-d]pyran-3a-yl) methyl sulfamate] | IC50 [1, 4]: 10.1 µM
18 | – | – | O=C(Nc1nncs1)c1cccnc1 [Table 3 entry 10, N-(1,3,4-thiadiazol-2-yl) nicotinamide] | IC50 [1, 4]: 3.1 µM
19 | – | – | CN(C)CCc1c[nH]c2ccc(Cn3cncn3)cc12 [Table 3 entry 15, 2-(5-((1H-1,2,4-triazol-1-yl)methyl)-1H-indol-3-yl)-N,N-dimethylethanamine] | IC50 [1, 4]: 2.9 µM
20 | – | – | CC(=O)Nc1nnc(S(N)(=O)=O)s1 [acetazolamide] | inhibition of AQP1 (AQP1): inhibited in a dose dependent manner
21 | – | – | CC[N+](CC)(CC)CC.[Cl-] [tetraethyl ammonium chloride] | inhibition of AQP4 (AQP4): shown to inhibit AQP4

Row | SMILES | IAmax ([1]; Table 3) | inhibition at 20 µM [2] [%] | also measured
22 | O=C(Nc1nccs1)c1cccnc1 [Compound 11, N-(thiazol-2-yl)nicotinamide] | 23 | 21 ± 7 | IC50 [1, 3]: 3.4 µM
